Measured values taken from patent publication US8084210B2, “Methods for the assessment of drug response” (Theranostics Laboratory, priority 2008, dated 2011).
“And” between values parts separate entries of the source, which are not always exact repeats. Identical values can stand only once. Like-named read-outs stand apart in the source and are kept apart here. Blank lines part the entries; values can stand above or below the molecule they belong to.

Tests used:
[1] = cited from earlier work
[2] = target: T1, P2Y12 receptor (Homo sapiens, UniProt Q9H244); assay: Platelet function by VerifyNow P2Y12 analyser in elective PCI patients given clopidogrel (PRINC trial); assay type: in vivo; conditions: for inhibition at 75 mg / inhibition at 150 mg: human
T1 construct: light transmittance through whole blood, to measure platelet agglutination; from tissue; host or cells: Platelets in citrated whole blood (arterial or venous) of patients
Text: The study protocol was approved by the Northern Regional Ethics Committee of New Zealand. Eligible patients were defined as all-corners for elective percutaneous coronary intervention who were on aspirin and naëve to clopidogrel. […] Patients were randomised into equal groups using a computerised random number generator. Block randomisation was not used, explaining the unbalanced grouping to treatment allocations. Clopidogrel was broken in half and repackaged into gelatine capsules packed with lactose powder to match placebo. Investigators and subjects were blinded to treatment allocation. A target of 120 patients was predefined for completion of the study. […] At discharge patients were randomized to receive either 75 mg or 150 mg once daily for one week and regular 75 mg once daily dosing thereafter. Adherence to the treatment regimen was tested by a phone interview and pill count. Arterial blood was sampled through 6Fr femoral sheaths and transferred immediately to 3.2% citrate 2 ml vacutainer tubes (Cat. #454321 Greiner Vacuette®, Greiner, Kremsmuenster, Austria), using a 20 G needle and syringe. After sheath removal blood was drawn by venepucture directly into vacutainer tubes. After collection the tubes were inverted four times for adequate mixing of the anticoagulant and left for ten minutes at 24 degrees before testing. Platelet function was tested at baseline, two, four and seven hours from first clopidogrel loading and at seven days. […] This device uses fibrinogen coated microbeads, an agonist of adenosine diphosphate (ADP) and light transmittance through whole blood, to measure platelet agglutination. The output of the device is measured as the proprietary platelet response unit (PRU). […] Percent inhibition is reported as the percentage change from baseline using a BASE unit. This BASE unit is derived from a second channel run parallel with the ADP channel using the agonist iso-TRAP (Thrombin Receptor Activating Peptide). From this point “percentage inhibition” will reflect this formula: % Inhibition=[(BASE−PRU)×100]/BASE. […] (2004) and Lev E I et al (2006)). The principal time point of interest for comparisons of genotype to drug response was specified as two hours after the first loading dose as at this point all patients had received only 600 mg. […] The effect of different dosages on response in genotype groups was assessed at four hours.

[3] = tested on: ADP-induced platelet aggregation or activation; conditions: low inhibition of ADP-induced platelet aggregation or activation; cited from earlier work
[4] = in vivo; cited from earlier work

T1 sequence (Q9H244 whole entry): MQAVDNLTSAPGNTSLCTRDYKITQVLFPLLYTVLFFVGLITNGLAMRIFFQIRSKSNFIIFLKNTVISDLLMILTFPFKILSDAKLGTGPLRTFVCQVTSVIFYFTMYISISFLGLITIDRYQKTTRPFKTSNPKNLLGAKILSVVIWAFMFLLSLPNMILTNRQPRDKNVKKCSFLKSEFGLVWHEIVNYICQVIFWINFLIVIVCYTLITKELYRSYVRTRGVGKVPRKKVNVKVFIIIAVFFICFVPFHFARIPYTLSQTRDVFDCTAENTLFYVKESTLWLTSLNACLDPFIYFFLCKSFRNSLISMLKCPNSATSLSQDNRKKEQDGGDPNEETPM

- Platelet inhibition ([2]; 75 mg maintenance dose, CYP2C19*2 or *4 carriers): 24+/−18%
- Non-responders (seven hour percent inhibition <10%) ([2]; 600 mg (low dose) group, six out of 26): 26%
- Platelet inhibition ([2]; 600 mg loading dose, CYP2C19*2 or *4 carriers): 16+/−13%
- Non-responders (seven hour percent inhibition <10%) ([2]; 1,200 mg (high dose) group, two out of 37): 5%
- Platelet inhibition ([2]; 2 hours after 600 mg, CYP2C19*1*1 carriers): 26+/−20%
- Platelet inhibition ([2]; 2 hours after 600 mg, CYP2C19*2, *4 and *17 carriers): 13+/−20%
- Platelet inhibition ([2]; four hours, 600 mg loading dose): 23.7%
- Platelet inhibition ([2]; four hours, 600 mg loading dose, CYP2C19*1*1 carriers): 35+/−27%
- Platelet inhibition ([2]; four hours, 1200 mg loading dose, CYP2C19*1*1 carriers): 51+/−28%
- Platelet inhibition ([2]; four hours, 1,200 mg split loading dose): 42%
- Platelet inhibition ([2]; higher (150 mg) maintenance dose, CYP2C19*2 or *4 carriers): 49+/−31%
- Platelet inhibition ([2]; higher (1200 mg) loading dose, CYP2C19*2 or *4 carriers): 36+/−24%
- inhibition at 75 mg ([2]; 75 mg daily maintenance dose, CYP2C19*1*1 carriers): 40%
- inhibition at 150 mg ([2]; 150 mg daily maintenance dose, CYP2C19*1*1 carriers): 51%
- inhibition at 75 mg ([2]; one week, 75 mg once daily): 28.8%
- inhibition at 150 mg ([2]; one week, 150 mg once daily): 49.8%
- Platelet inhibition ([2]; seven days, 600 mg loading dose group): 35.7%
- Platelet inhibition ([2]; seven days, 1,200 mg split loading dose group): 44.5%
- Platelet inhibition ([2]; seven hours, 600 mg loading dose): 28.7%
- Platelet inhibition ([2]; seven hours, 1,200 mg split loading dose): 48.9%
- Platelet inhibition ([2]; seven hours, two individuals carrying both 2C19 and 2C9 poor responder genotypes): 8% and 11%
- Platelet inhibition ([2]; two hours after 600 mg, two P2Y12 H2 haplotype CC homozygotes): < 2%
SMILES: COC(=O)[C@H](c1ccccc1Cl)N1CCc2sccc2C1 [clopidogrel, (+)-(S)-methyl 2-(2-chlorophenyl)-2-(6,7-dihydrothieno[3,2-c]pyridin-5(4H)-yl)acetate]
- Bioavailability ([1]; in vivo): approximately 50%
- Elimination half life ([1]; in vivo): 7.2 to 7.6 h
- Time to peak effect after dosing ([1]; in vivo): six
- Share of a dose converted by esterases to inactive metabolites ([1]; inactivation pathway): ~85%
- Patients classified as poor responders or resistant [3]: 20-40%

SMILES: CC(=O)Oc1cc2c(s1)CCN(C(C(=O)C1CC1)c1ccccc1F)C2 (stereo not shown) [prasugrel, 5-[2-cyclopropyl-1-(2-fluorophenyl)-2-oxoethyl]-4,5,6,7-tetrahydrothieno[3,2-c]pyridin-2-yl acetate]
- Elimination half life [4]: 3.7 h
